The target in experiment [1] is Induced myeloid leukemia cell differentiation protein Mcl-1 (Homo sapiens, UniProt Q07820). It counts as functional.
For experiment [2], the target named is T1, G-protein coupled receptor 35 (Homo sapiens, UniProt Q9HC97). Put plainly: SAR analysis of Agonists of the GPR35 Receptor using an Image-Based Assay - Set 4. [Related pubchem assays (depositor defined):AID2013, AID2026]. It counts as functional.
Experiment [3] addresses T2, Cannabinoid receptor 1 (Homo sapiens, UniProt P21554). Put plainly: SAR analysis of agonists of the Cannabinoid Receptor 1 using an Image-Based Assay - Set 4. [Related pubchem assays (depositor defined):AID2013, AID2026]. It counts as functional.
In experiment [4] the target is T1, G-protein coupled receptor 35. Kind of experiment: SAR analysis of Antagonists of the GPR35 Receptor using an Image-Based Assay - Set 6. [Related pubchem assays (depositor defined):AID2013, AID2026]. It counts as functional.
In experiment [5] the target is T2, Cannabinoid receptor 1. Kind of experiment: SAR analysis of antagonists of the Cannabinoid Receptor 1 using an Image-Based Assay - Set 4. [Related pubchem assays (depositor defined):AID2013, AID2026]. It counts as functional.
Experiment [6] addresses G-protein coupled receptor 55 (Homo sapiens, UniProt Q9Y2T6). Put plainly: SAR Analysis of Selective Antagonists of GPR55 using an Image-Based Assay - Set 4. [Related pubchem assays (depositor defined):AID2013, AID2026]. It counts as functional.
In experiment [7] the target is T3, Cannabinoid receptor 2 (Homo sapiens, UniProt P34972). Put plainly: SAR analysis of antagonists of the Cannabinoid Receptor 2 using an Image-Based Assay - Set 3. [Related pubchem assays (depositor defined):AID2013, AID2026]. It counts as functional.
Experiment [8] has as its target T3, Cannabinoid receptor 2. Kind of experiment: SAR analysis of agonists of the Cannabinoid Receptor 2 using an Image-Based Assay - Set 3. [Related pubchem assays (depositor defined):AID2013, AID2026]. It counts as functional.
Experiment [9] addresses T4, Probable nicotinate-nucleotide adenylyltransferase (Staphylococcus aureus (strain N315), UniProt P65502). It counts as functional, Staphylococcus aureus subsp. aureus N315.
The target of experiment [10] is T4, Probable nicotinate-nucleotide adenylyltransferase. It counts as functional, Staphylococcus aureus subsp. aureus N315. The conditions noted are these: read-out: IC50_Mean.
The target in experiment [11] is T5, E3 ubiquitin-protein ligase XIAP (Homo sapiens, UniProt P98170). Kind of experiment: Counter Screen using XIAP-Bir3 of the Chemical Antagonists of IAP-family anti-apoptotic proteins confirmation assay. [Related pubchem assays (depositor defined):AID1018, AID1449, AID1513, AID1638, AID1749, AID1750, AID488957, AID488963].
A further experiment deals with T6, Leucine aminopeptidase (Plasmodium falciparum 3D7, UniProt Q8IL11).
T6 sequence (Q8IL11 whole entry): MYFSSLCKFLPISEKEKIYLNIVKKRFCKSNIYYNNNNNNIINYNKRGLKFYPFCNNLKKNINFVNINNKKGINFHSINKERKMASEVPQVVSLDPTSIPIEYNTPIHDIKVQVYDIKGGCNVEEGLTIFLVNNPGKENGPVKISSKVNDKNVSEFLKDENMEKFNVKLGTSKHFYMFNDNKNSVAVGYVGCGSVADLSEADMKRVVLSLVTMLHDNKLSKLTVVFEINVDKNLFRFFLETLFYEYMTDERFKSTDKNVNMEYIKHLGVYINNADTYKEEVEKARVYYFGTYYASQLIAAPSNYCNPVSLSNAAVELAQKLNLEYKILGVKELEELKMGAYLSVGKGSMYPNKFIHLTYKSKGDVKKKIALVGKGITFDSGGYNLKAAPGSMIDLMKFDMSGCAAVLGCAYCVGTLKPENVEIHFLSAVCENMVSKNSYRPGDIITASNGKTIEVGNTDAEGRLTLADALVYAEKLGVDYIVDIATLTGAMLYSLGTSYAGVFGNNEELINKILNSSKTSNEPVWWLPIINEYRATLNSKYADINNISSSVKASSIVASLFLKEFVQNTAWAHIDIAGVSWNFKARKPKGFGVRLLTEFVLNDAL
Kind of experiment: P. falciparum M17LAP inhibitors, primary screen, biochemical, fluorogenic H-Leu-NHMec substrate, 1536-well (AID 1619). It counts as functional.

The target in experiment [12] is T5, E3 ubiquitin-protein ligase XIAP. Kind of experiment: Chemical Antagonists of IAP-family anti-apoptotic proteins confirmation. [Related pubchem assays (depositor defined):AID1018, AID1513, AID1514, AID1638, AID1749, AID1750, AID488957, AID488963].
Experiment [13] can be described thus: Luminescence Cell-Based Dose Retest to Confirm Inhibitors of Cancer Stem Cells. [Related pubchem assays (depositor defined):AID2717, AID2721]. It counts as functional. The following applies: Homo sapiens.
A short description of experiment [14]: Intein inhibitors as potential Tuberculosis drugs, a cytotoxicity screen. [Related pubchem assays (depositor defined):AID2221, AID2223, AID434968, AID435010, AID449749, AID449750, AID489010]. It counts as functional.
In experiment [15] the target is T7, Replicative DNA helicase DnaB (Mycobacterium tuberculosis, UniProt P9WMR3).
T7 sequence (P9WMR3 whole entry): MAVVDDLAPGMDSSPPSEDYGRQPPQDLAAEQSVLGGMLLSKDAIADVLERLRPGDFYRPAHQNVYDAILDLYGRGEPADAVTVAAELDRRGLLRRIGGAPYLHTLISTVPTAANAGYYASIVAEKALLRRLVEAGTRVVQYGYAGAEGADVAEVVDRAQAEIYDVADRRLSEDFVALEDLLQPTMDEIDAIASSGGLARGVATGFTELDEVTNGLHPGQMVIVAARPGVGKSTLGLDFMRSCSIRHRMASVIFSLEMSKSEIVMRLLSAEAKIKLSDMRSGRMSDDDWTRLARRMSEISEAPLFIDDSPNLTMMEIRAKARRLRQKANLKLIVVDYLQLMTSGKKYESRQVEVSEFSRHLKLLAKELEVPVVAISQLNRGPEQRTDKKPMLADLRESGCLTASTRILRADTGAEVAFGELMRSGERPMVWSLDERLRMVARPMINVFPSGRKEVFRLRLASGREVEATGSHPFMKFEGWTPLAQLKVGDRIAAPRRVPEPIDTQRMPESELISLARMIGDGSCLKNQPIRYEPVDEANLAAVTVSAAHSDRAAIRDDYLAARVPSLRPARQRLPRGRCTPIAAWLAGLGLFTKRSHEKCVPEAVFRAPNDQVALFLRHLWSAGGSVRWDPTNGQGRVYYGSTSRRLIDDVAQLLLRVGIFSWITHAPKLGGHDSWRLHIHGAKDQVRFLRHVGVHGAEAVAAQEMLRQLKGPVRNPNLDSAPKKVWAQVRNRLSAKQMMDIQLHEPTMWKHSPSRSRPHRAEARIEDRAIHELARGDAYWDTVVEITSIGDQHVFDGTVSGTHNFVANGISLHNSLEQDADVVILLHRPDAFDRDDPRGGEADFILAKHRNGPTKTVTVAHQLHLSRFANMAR
Kind of experiment: DnaB intein splicing inhibitors, dose response, biochemical, cell-free fluorescence (AID 449749). It counts as functional.

The target in a further experiment is T8, Protein RecA (Mycobacterium tuberculosis, UniProt P9WHJ3).
T8 sequence (P9WHJ3 whole entry): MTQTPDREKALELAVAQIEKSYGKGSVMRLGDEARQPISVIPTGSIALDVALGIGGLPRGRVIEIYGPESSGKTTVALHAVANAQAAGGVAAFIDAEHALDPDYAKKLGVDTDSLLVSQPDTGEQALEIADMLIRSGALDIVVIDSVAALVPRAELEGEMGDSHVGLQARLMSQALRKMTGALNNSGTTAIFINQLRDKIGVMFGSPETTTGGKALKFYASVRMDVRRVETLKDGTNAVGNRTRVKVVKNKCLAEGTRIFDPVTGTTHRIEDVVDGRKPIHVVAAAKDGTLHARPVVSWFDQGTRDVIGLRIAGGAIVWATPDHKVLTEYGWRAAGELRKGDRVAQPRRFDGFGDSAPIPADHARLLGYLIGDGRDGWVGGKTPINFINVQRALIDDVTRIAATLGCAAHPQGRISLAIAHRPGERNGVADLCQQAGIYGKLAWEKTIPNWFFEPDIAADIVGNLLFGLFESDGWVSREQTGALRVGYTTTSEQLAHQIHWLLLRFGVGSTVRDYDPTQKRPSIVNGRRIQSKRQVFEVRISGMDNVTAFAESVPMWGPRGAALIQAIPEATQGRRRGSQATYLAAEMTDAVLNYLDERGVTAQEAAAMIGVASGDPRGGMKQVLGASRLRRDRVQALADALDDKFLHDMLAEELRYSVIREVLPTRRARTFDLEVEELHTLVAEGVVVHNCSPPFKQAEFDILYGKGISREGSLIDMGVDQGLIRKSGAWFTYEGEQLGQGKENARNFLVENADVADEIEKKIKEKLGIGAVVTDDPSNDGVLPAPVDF
Put plainly: Fluorescence Cell-Free Homogeneous Dose Retest to Identify Inhibitors of RecA-Intein Splicing Activity. [Related pubchem assays (depositor defined):AID2097, AID2223, AID489010, AID492950]. It counts as functional.

Experiment [16] addresses T9, Fatty acid synthase (Homo sapiens, UniProt P49327). Put plainly: inhibition of human FAS-TE enzyme activity – biochemical, endpoint fluorescence intensity, uHTS hits, dose response (AID 624327).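 Also: fluorescence from hydrolysis of an O-methyl fluorescein acyl ester substrate by the enzyme.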 It counts as functional.
The target of experiment [17] is T9, Fatty acid synthase. Put plainly: inhibition of human FAS-TE enzyme activity – biochemical, kinetic fluorescence intensity, dose response (AID 624326).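 Also: rate of fluorescence rise from hydrolysis of a fluorogenic O-methyl fluorescein ester substrate.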 It counts as functional.
Experiment [18] in a line: viability of uninfected HEp-2 cells – cell-based, HTS, cytotoxicity control for RSV inhibitor project, dose response (AID 2410). It counts as functional. The following applies: human respiratory syncytial virus.
In a further experiment the target is SUMO-activating enzyme (Homo sapiens, UniProt Q9UBT2). Put plainly: blockers of UBC9-mediated SUMO conjugation – biochemical, AlphaScreen, SUMOylation inhibitor project, confirmation (AID 2018). It counts as functional.
Experiment [19] deals with T10, Runt-related transcription factor 1/Core-binding factor subunit beta (Homo sapiens, UniProt Q01196+Q13951). Put plainly: disruptors of Runt domain/CBFb-SMMHC interaction – biochemical, FRET, Cerulean-Runt, Venus-CBFb-SMMHC, uHTS, […] (AID 1434). It counts as protein assay.
Experiment [20] has as its target T10, Runt-related transcription factor 1/Core-binding factor subunit beta. Put plainly: Runt domain/CBFb-SMMHC interaction disruptors – biochemical, TR-FRET (AID 1438). It counts as protein assay.

Calls of active or inactive are those of the source. Bounds are passed on as bounds.
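For IC50 Mean in this document: confirmatory dose-response retesting of NadD inhibitor hits first found in an ultra-high-throughput screen.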

T5 sequence (P98170 whole entry): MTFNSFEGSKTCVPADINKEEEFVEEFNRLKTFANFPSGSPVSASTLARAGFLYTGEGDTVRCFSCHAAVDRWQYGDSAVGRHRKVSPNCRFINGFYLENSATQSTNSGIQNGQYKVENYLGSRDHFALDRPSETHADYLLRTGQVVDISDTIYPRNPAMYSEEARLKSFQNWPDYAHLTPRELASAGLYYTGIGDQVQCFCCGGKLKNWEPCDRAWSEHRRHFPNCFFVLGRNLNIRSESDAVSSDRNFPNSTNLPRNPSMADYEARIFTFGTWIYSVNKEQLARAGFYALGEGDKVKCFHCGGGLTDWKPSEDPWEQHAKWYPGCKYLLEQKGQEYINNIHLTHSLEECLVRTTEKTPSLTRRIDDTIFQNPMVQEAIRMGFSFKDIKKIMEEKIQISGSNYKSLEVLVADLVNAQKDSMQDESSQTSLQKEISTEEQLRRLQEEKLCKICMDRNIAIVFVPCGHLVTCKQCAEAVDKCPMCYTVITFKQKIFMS
T4 sequence (P65502 whole entry): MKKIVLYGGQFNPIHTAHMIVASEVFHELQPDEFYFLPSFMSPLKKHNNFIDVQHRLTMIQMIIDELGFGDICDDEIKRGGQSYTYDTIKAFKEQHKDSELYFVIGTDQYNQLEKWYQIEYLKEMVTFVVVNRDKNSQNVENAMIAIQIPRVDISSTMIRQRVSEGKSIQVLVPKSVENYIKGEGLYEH
T3 sequence (P34972 whole entry): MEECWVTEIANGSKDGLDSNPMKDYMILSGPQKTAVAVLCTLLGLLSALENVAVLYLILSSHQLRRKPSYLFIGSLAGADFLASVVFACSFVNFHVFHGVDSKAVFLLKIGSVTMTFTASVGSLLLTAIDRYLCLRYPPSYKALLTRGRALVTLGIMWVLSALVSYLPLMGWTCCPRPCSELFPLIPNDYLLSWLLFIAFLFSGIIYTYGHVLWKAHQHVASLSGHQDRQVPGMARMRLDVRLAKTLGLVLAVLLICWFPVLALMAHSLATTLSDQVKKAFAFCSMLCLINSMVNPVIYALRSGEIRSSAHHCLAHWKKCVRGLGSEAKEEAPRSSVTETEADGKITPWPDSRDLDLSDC
T1 sequence (Q9HC97 whole entry): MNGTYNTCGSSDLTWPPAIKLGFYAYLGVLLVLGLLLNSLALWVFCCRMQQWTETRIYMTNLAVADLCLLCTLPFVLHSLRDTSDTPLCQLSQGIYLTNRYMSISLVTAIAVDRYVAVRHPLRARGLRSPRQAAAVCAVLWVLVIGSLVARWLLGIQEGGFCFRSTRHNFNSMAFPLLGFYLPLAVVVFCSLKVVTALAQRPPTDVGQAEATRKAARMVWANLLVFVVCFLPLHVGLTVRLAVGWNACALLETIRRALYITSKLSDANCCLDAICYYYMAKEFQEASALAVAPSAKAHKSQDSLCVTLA
T2 sequence (P21554 whole entry): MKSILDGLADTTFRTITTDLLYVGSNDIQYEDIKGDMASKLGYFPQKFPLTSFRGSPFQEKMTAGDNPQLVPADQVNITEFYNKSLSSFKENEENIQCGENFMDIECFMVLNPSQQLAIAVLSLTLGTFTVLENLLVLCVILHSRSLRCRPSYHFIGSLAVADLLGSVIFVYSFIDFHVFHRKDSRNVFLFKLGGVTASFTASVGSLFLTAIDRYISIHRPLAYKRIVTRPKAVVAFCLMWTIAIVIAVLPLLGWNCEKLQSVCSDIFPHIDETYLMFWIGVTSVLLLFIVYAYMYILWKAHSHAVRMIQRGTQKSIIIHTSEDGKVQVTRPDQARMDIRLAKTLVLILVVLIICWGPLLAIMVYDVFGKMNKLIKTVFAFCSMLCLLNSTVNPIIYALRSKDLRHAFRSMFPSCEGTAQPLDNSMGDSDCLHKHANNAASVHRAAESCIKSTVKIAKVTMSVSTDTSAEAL
Chain of Induced myeloid leukemia cell differentiation protein Mcl-1 (Q07820 whole entry): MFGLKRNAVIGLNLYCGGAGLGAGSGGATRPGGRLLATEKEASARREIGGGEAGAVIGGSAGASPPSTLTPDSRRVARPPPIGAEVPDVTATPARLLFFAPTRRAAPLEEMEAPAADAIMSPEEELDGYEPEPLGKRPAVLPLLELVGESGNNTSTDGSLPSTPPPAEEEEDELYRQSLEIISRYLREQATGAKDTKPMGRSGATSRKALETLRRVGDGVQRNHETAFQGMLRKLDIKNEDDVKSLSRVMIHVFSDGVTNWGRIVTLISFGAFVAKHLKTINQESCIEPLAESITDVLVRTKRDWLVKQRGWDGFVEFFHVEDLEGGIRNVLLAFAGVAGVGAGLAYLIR
T9 sequence (P49327 whole entry): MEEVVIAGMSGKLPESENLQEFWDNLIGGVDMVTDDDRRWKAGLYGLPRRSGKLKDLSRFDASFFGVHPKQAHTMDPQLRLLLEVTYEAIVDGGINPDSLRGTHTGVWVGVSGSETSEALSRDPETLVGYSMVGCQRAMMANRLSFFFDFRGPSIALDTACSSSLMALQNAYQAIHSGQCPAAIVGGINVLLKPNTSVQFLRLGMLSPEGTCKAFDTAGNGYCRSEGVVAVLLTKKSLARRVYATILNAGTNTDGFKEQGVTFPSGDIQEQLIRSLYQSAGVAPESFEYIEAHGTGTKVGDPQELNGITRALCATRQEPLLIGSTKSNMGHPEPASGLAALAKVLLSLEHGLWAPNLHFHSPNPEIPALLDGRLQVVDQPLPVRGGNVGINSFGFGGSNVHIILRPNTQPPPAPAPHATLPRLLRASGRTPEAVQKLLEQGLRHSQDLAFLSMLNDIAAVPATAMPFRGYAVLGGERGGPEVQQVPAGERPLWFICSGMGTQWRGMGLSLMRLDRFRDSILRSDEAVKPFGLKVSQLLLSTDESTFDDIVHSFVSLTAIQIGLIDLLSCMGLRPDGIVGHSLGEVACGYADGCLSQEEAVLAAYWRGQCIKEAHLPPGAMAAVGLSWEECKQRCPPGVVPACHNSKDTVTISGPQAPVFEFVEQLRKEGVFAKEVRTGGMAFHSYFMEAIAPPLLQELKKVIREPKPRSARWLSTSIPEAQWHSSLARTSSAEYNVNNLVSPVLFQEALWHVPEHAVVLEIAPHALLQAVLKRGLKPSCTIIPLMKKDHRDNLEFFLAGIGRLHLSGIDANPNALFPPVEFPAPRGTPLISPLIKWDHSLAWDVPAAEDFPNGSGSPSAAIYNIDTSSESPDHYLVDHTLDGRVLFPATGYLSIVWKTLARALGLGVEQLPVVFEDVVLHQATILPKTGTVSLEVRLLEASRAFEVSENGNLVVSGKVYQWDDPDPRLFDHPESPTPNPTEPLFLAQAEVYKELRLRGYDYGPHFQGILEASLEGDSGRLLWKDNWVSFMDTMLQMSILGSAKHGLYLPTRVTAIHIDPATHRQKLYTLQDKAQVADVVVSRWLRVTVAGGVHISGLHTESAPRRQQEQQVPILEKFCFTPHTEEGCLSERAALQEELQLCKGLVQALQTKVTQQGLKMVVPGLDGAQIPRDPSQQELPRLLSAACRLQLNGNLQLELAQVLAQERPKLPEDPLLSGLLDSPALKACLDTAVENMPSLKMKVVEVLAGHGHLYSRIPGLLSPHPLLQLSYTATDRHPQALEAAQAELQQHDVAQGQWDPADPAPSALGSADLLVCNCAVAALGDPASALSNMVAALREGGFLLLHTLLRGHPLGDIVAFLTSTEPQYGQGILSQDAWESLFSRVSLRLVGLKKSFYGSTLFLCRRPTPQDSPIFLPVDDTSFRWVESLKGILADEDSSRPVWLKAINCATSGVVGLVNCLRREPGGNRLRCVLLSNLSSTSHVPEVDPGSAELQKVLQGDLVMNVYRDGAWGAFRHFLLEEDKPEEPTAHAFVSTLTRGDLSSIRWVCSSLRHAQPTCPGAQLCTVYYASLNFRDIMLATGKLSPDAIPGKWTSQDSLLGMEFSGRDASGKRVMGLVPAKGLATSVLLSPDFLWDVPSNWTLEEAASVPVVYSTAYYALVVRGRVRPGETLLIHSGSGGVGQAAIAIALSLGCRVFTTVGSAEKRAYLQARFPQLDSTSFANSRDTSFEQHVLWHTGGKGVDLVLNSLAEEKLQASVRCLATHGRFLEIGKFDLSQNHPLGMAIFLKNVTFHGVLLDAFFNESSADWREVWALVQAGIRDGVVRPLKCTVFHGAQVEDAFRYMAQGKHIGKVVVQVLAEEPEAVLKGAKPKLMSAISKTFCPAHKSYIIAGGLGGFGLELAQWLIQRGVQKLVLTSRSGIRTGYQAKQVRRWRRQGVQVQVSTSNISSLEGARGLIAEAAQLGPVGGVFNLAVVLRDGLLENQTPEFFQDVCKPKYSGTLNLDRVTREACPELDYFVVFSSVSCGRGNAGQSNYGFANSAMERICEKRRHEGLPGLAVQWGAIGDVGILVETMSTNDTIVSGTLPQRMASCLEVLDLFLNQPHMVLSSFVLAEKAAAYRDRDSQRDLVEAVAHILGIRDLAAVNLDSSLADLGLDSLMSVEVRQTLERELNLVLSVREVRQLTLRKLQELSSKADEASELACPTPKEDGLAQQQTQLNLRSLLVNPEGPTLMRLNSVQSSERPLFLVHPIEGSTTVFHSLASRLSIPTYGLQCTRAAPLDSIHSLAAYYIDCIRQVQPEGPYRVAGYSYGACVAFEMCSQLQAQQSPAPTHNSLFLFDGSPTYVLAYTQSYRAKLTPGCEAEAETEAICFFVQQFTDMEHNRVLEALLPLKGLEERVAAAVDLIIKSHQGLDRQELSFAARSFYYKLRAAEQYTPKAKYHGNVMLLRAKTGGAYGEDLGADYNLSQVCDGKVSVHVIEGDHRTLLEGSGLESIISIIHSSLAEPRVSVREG
Chain of G-protein coupled receptor 55 (Q9Y2T6 whole entry): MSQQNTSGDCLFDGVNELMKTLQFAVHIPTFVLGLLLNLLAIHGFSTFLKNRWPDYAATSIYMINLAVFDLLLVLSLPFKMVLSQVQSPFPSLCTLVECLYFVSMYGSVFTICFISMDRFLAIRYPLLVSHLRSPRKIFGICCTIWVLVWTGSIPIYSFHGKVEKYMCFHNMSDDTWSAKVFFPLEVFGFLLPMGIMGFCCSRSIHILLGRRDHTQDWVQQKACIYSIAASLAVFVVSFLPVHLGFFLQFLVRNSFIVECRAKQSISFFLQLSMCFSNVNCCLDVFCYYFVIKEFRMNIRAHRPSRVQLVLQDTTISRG

Turning to `O=C(Nc1ccc(S(=O)(=O)Nc2nccs2)cc1)c1cc(-c2ccncc2)nc2ccccc12`, the IC50 is 1.64 µM (active) in [1]; > 32 µM (inactive) in experiment [4]; 2.23 µM (active) on Cannabinoid receptor 1 [5]; > 32 µM (inactive) in [6]; > 32 µM (inactive) on Cannabinoid receptor 2 [7]; 6.6 µM (active) in experiment [9]. Further, the IC50 in [10] is 21.6 µM (active). Also, the EC50 (in [2]; at Cannabinoid receptor 1 [3]; on Cannabinoid receptor 2 [8]) was > 32 µM (inactive) throughout.
For `O=C(O)[C@H](Cc1ccccc1)N1Cc2ccccc2C1=O`, the IC50 in [11] was > 200 µM (inactive); at Leucine aminopeptidase it was 6.47 µM (active); in experiment [12], 131 µM (inactive).
Turning to `CC(NC(=O)COC(=O)c1cc(NS(=O)(=O)c2ccc(Cl)c([N+](=O)[O-])c2)ccc1O)C1CC2CCC1C2` (centres undefined), the concentration at half-maximal activity (AC50) in experiment [13] is 3.17 µM (active); in [15] it was 2.01 µM (active). The CC50 in experiment [14] was 32.7 µM (active). Moreover, the EC50 at Protein RecA is 3.7 µM (active). Also, the figures for the IC50 at Fatty acid synthase [16] and on Fatty acid synthase [17] were 11.1 µM (active) and 11.7 µM (active), respectively.
For the compound `CCCCCCC#Cc1cncc(C(=O)NNC(=O)Nc2cc(Cl)cc(Cl)c2)c1`, the CC50 in [18] is 9.35 µM (active). In addition, the IC50 at SUMO-activating enzyme was 59.8 µM (active).
Regarding `Cc1ccc(Cn2c(=N)c(C(=O)NCc3ccco3)cc3c(=O)n4ccccc4nc32)cc1`, the IC50 was 0.475 µM (active) in [19], 15.3 µM (active) in experiment [20] and 3.14 µM (active) in [1].

(Values after ChEMBL document CHEMBL1201862, “PubChem BioAssay data set” (2004).)
